Assay results published in article PMC5187951 (International Journal of Molecular Sciences, 2016).

Key:
[1] = test system: acetic acid induced writhing in mice; experiment: Acetic acid induced writhing in mice; format: in vivo; conditions: 20 mg/kg p.o.; for No. of Writhing, Mean ± SEM: 0.6% acetic acid, counted up to 15 min; for Percentage inhibition of writhing: vs control
Description: Koster et al., reported method was adopted for the determination of analgesic activity of the mutual prodrugs 5a–c. The mice were divided in to five groups each group consists of five animals. […] For induction of writhings, acetic acid solution (0.6% in normal saline) was given to every mouse post 30 min of treatment. After 5 min of injection of this solution, the number of writhings was counted up to 15 min.

[2] = test system: yeast induced pyrexia in mice; experiment: Yeast induced pyrexia in mice; format: in vivo; conditions: for Temperature 1 h, Mean ± SEM / Temperature 2 h, Mean ± SEM / Temperature 3 h, Mean ± SEM: 20 mg/kg p.o.; for Temperature 1 h, Mean ± SEM: 1 h after drug administration; for Temperature 2 h, Mean ± SEM: 2 h after drug administration; for Temperature 3 h, Mean ± SEM: 3 h after drug administration; for Temperature After 24 h of Induction, Mean ± SEM: rectal temperature after yeast, before drug; for Temperature before Induction, Mean ± SEM: rectal temperature, baseline before yeast
Description: Antipyretic activity of prodrugs 5a–c was evaluated against yeast induced pyrexia in mice according to Sakande et al., reported method. Aqueous suspension of brewer′s yeast (20% in distilled water) […] was given subcutaneous to mice. […] Only, those animals were further used in which the pyrexia had been induced. The animals were divided in to five groups having five mice in each group. […] Then animals were treated as described earlier with control, standard and prodrugs 5a–c. Rectal temperature of animals was recorded at 1, 2, 3 and 4 h after drug administration.

[3] = test system: carrageenan induced paw edema in mice; experiment: Carrageenan induced paw edema in mice; format: in vivo; conditions: 20 mg/kg p.o.; for Inflammation at 1 h (paw thickness), Mean ± SEM / Percent inhibition of paw edema at 1 h: 1 h after carrageenan; for Percent inhibition of paw edema at 1 h / Percent inhibition of paw edema at 2 h / Percent inhibition of paw edema at 3 h / Percent inhibition of paw edema at 4 h: vs control; for Inflammation at 2 h (paw thickness), Mean ± SEM / Percent inhibition of paw edema at 2 h: 2 h after carrageenan; for Inflammation at 3 h (paw thickness), Mean ± SEM / Percent inhibition of paw edema at 3 h: 3 h after carrageenan; for Inflammation at 4 h (paw thickness), Mean ± SEM / Percent inhibition of paw edema at 4 h: 4 h after carrageenan
Description: Anti-inflammatory activity of mutual prodrugs 5a–c was determined by following the already reported method by slight modification against carrageenan induced paw edema in mice. The animals were distributed into 5 groups each having five mice. The mice used for the experiment were kept on fasting for 24 h before the starting of experiment. […] The paw volume was measured at 0, 1, 2, 3 and 4 h after the administration of carrageenan by using vernier caliper. (1) Percent inhibition (%) = 100 (1−X/Y) where X = mean increase in paw thickness of treated mice; and Y = mean increase in paw thickness of control mice.

[4] = test system: formalin induced licking in mice; experiment: Formalin induced licking in mice; format: in vivo; conditions: 20 mg/kg p.o.; for Lickings Time, Mean ± SEM: formalin 2.5%, observed 30 min; for Percentage inhibition of licking time: vs control
Source text: Formalin induced licking in mice was also used to determine analgesic activity of prodrugs 5a–c for further verification. The animals were distributed in to five groups having five mice in each group.

[5] = test system: egg albumin induced paw edema in mice; experiment: Egg albumin induced inflammation (paw edema) in mice; format: in vivo; conditions: 20 mg/kg p.o.
Description: Anti-inflammatory potential of synthesized prodrugs 5a–c against egg albumin induced inflammation was also determined for further verification by following the previously reported method. The animals were divided into five groups, each group having five animals. The animals were kept on fasting for 24 h before the beginning of the experiment.

[6] = test system: platelet aggregation of rat platelet rich plasma induced by ADP or collagen; experiment: Ex vivo antiplatelet aggregation activity; format: in vivo, Sprague-Dawley (SD) rats; conditions: 100 mg/kg orally, blood 90 min after dosing, ADP 1.3 µmol/L or collagen 32.8 µg/mL; ASA 50 mg/kg positive control
Description: The antiplatelet activity of synthesized mutual prodrugs 5a–c was investigated by following the already reported method with some modifications. Male Sprague-Dawley (SD) rats weighing 320–350 g were used after overnight fasting. Rats were orally administered via gastric tube 100 mg/kg of prodrugs solution or 50 mg/kg of acetyl salicylic acid (ASA) suspended in 0.5% carboxymethyl cellulose (CMC) solution. Blood was collected 90 min after sample administration and platelet-rich plasma (PRP) was prepared by centrifugation of blood at 120× g for 15 min and further centrifuged at 850× g for 15 min to prepare platelet-poor plasma (PPP). Platelet aggregation was induced by 32.8 µg/mL of collagen or 1.3 µmol/L of adenosine diphosphate (ADP) in 300 µL of PRP. The PRP (300 µL) was incubated at 37 °C for 2 min in the aggregometer with stirring at 1000 rpm and then stimulated with ADP, collagen, epinephrine and A23187. The changes in light transmission were recorded for 5 min after stimulation. The synthesized mutual prodrugs 5a–c were added to the platelet suspension 3 min before the addition of the aggregating agents. The extent of inhibition of platelet aggregation is expressed as percent inhibition (X) using the following formula: (3) X=((A−B)/A)×100 where A = maximal aggregation of the control; and B = maximal aggregation of sample-treated PRP.

[7] = test system: gastrointestinal mucosa (stomach); experiment: Ulcerogenic studies, fasted rat model; format: in vivo; conditions: 20 mg/kg p.o., 4 h after dose, UI = area of ulcer/area of stomach × 100
Description: The animals were categorized into 6 groups, each has 5 animals. Group 1 was control and given 0.5% carboxymethyl cellulose (CMC) suspension. […] The prodrugs 5a–c (20 mg/kg p.o.) were given to Groups III–V, respectively. Food and water was removed from animal cages 24 h before starting the experiments. After 4 h administration of dose, the animal′s stomach was removed by sacrificing the animal. Stomach was kept on saline soaked filter paper for inspection. The stomach was opened along larger curvature and cleaned with distilled water. The mucous was removed and the area of ulcers and stomachs were noted.
Following formula was used for calculation of Ulcer index (UI); (2) UI=Area of Ulcer/Area of Stomach×100

Row | SMILES | No. of Writhing, Mean ± SEM [1] | Percentage inhibition of writhing [1] [%] | Temperature 1 h, Mean ± SEM [2] | Temperature 2 h, Mean ± SEM [2] [°F] | Temperature 3 h, Mean ± SEM [2] | Temperature After 24 h of Induction, Mean ± SEM [2] [°F] | Temperature before Induction, Mean ± SEM [2] [°F] | Inflammation at 1 h (paw thickness), Mean ± SEM [3] [mm] | Percent inhibition of paw edema at 1 h [3] [%] | Inflammation at 2 h (paw thickness), Mean ± SEM [3] [mm] | Percent inhibition of paw edema at 2 h [3] [%] | Inflammation at 3 h (paw thickness), Mean ± SEM [3] [mm] | Percent inhibition of paw edema at 3 h [3] [%] | Inflammation at 4 h (paw thickness), Mean ± SEM [3] [mm] | Percent inhibition of paw edema at 4 h [3] [%] | Lickings Time, Mean ± SEM [4] | Percentage inhibition of licking time [4] [%] | further results
1 | CC(C)Cc1ccc([C@H](C)C(=O)O)cc1 [Dexibuprofen, S-(+)-ibuprofen, reference compound] | 17.06 ± 1.08 | 54.12 | 95.25 ± 0.37 ^ns °F | 95.02 ± 0.35 | 94.97 ± 0.31 °F | 95.77 ± 0.26 | 95.20 ± 0.21 | 4.35 ± 0.06 | 1.1 | 4.07 ± 0.02 | 11.71 | 3.90 ± 0.04 | 19.58 | 3.75 ± 0.06 | 26.03 | 1.60 ± 0.22 | 43.46 | –
2 | CC(C)Cc1ccc([C@H](C)C(=O)OCC(=O)Oc2ccc3ccc(=O)oc3c2)cc1 [5c, (S)-((2-oxo-2H-chromen-7-yloxy)carbonyl) methyl 2-(4-isobutylphenyl) propanoate] | 18.25 ± 0.85 | 50.94 | 98.35 ± 0.05 °F | 97.65 ± 0.15 | 97.25 ± 0.08 ^ns °F | 102.1 ± 0.96 | 98.95 ± 0.04 | 4.22 ± 0.04 | 4.09 | 4.05 ± 0.02 | 12.14 | 3.80 ± 0.04 | 21.64 | 3.60 ± 0.04 | 28.99 | 1.31 ± 0.07 | 53.71 | Inflammation at 0 h (paw thickness), Mean ± SEM ([5]; 0 h after egg albumin): 4.60 ± 0.33 mm; Inflammation at 1 h (paw thickness), Mean ± SEM ([5]; 1 h after egg albumin): 3.12 ± 0.06 mm; Percent inhibition of paw edema at 1 h ([5]; 1 h after egg albumin, vs control): 29.09%; Inflammation at 2 h (paw thickness), Mean ± SEM ([5]; 2 h after egg albumin): 3.02 ± 0.06 mm; Percent inhibition of paw edema at 2 h ([5]; 2 h after egg albumin, vs control): 37.08%; Inflammation at 3 h (paw thickness), Mean ± SEM ([5]; 3 h after egg albumin): 2.92 ± 0.07 mm; Percent inhibition of paw edema at 3 h ([5]; 3 h after egg albumin, vs control): 44.06%; Inhibition of platelet aggregation [6]: most potent inhibitory effects; Inflammation at 0 h (paw thickness), Mean ± SEM ([3]; 0 h after carrageenan): 4.32 ± 0.04 mm; Ulcer Index (Mean±SEM) [7]: 1.61 ± 0.58
